# Legend:
# BACE1 = target: T1, BACE1 (Homo sapiens, UniProt P56817); experiment: Cellular Aβ-lowering assay (Abeta 40 AlphaLISA, HEK293 APP cells); type: cell-based; details: 18-20 hrs incubation, Aβ40 in culture supernatant, read-out: BACE1 cell act. Aβ40 IC50
# T1 construct: endogenous in cells; host or cells: HEK293 APP cells (HEK293 expressing APP)
# Method: Cellular Aβ-lowering Assay:
# The Abeta 40 AlphaLISA Assay can be used. The HEK293 APP cells were seeded in 96 well Microtiter plates in cell culture medium (Iscove's, plus 10% (v/v) fetal bovine serum, penicillin/streptomycin) to about 80% confluency and the compounds were added at a 3× concentration in ⅓ volume of culture medium (final DMSO concentration was kept at 1% v/v). After 18-20 hrs incubation at 37° C. and 5% CO2 in a humidified incubator, the culture supernatants were harvested for the determination of Aβ40 concentrations using Perkin-Elmer Human Amyloid beta 1-40 (high specificity) Kit (Cat# AL275C).
# In a Perkin-Elmer White Optiplate-384 (Cat# 6007290), 2 ul culture supernatants were combined with 2 μl of a 10× AlphaLISA Anti-hAβAcceptor beads+Biotinylated Antibody Anti-Aβ1-40 Mix (50 μg/mL/5 nM). After 1 hour room temperature incubation, 16 μl of a 1.25 × preparation of Streptavidin (SA) Donor beads (25 μg/mL) were added and incubated for 30 minutes in the Dark. Light Emission at 615 nm was then recorded using EnVision-Alpha Reader. Levels of Aβ 40 in the culture supernatants were calculated as percentage of maximum signal (cells treated with 1% DMSO without inhibitor). The IC50 values were calculated using the Excel XLfit software.
# [1] = system: Aβ40 in brain of wild-type mice; experiment: Lowering of Aβ40 in brain of wild-type mice; type: in vivo, mouse; details: female C57Bl/6J mice, 30 mg/kg per os, 4 h after dose, brain Aβ40 as percentage of the vehicle group
# Method: Lowering of Aβ40 in Brain of Wild-Type Mice:
# Animals and Housing Conditions. Animals were maintained in a 12/12 h light/dark cycle, with lights starting at 6 a.m., and experiments were conducted during the light phase. Animal housing and experimental procedures were in line with ethical and legal guidelines and were authorized by local veterinary authorities.
# Experiment. Female C57B1/6J mice were treated with a dose of 30 mg/kg of the compounds, 3-4animals per treatment group. The test compound was dissolved in 5% EtOH, 10% Solutol, and was applied per os at 10 mL/kg. After 4 h, the animals were sacrificed and brain and plasma were collected. The brain was cut into halves and immediately frozen on dry ice. Brain was used for measurement of Aβ40 and plasma was used for determination of compound exposure. […] Brain tissue was homogenized in 2% DEA buffer in a Roche MagnaLyser (20″, 4000 rpm) and subsequently centrifuged for 1 h at 100000 g. DEA was reduced to 0.2% in 50 mM NaCl and one-half of the DEA lysate was passed over an Oasis Solid phase extraction plate (Waters; cat. no. 186000679), which had been activated with MeOH and equilibrated in dH2O (1 mL each). After washes in 10% and 30% MeOH (1 mL each), the Aβ-peptides were eluted in 0.8 mL of 2% NH4OH in 90% MeOH. The eluate was dried over a N2 flow, and the dried sample was reconstituted in 30 μL of AlphaLISA assay buffer. Aβ40 was determined by an AlphaLISA assay (Perkin-Elmer). In a white 96-well, half area microplate (Perkin-Elmer cat. no. 6005561), 20 μL of the reconstituted sample were mixed with 5 μL of biotinylated BAP-24 (specific for C-terminus of Aβ40) (Brockhaus, M.; Grunberg, J.; Rohrig, S.; Loetscher, H.; Wittenburg, N.; Baumeister, R.; Jacobsen, H.; Haass, C. Caspasemediated cleavage is not required for the activity of presenilins in amyloidogenesis and NOTCH signaling. NeuroReport 1998, 9, 1481-1486.) stock=4.4 mg/mL, f.c.5.5 μg/mL), and 5 μL 252Q6 acceptor beads (252Q6 antibody, Invitrogen AMB0062) had been previously conjugated with AlphaLISA Acceptor beads (Perkin-Elmer cat. no. 6772002); final dilution 1:500). The mix was incubated for 1 h at RT in the dark. Then 20 μL of Streptavin-coated Donor Beads (Perkin-Elmer cat. no. 6760002, final dilution 1:125) were added and this final mix was incubated in the dark for another 30 min at RT before RFU was measured in an AlphaScreen Reader (Perkin-Elmer Envision 2104). The value obtained for Aβ40 in the treated animals was related to the value in the vehicle group and is given in %. Alternatively a commercial ELISA was used for Aβ40 determination (Wako ELISA: (“Human/Rat β Amyloid (40) ELISA kit Wako II”; cat nr. 294-64701) following the manufacture's instruction. Also here the Aβ-lowering efficacy was calculated as percentage of the vehicle group.
# T1 sequence (P56817 46-501): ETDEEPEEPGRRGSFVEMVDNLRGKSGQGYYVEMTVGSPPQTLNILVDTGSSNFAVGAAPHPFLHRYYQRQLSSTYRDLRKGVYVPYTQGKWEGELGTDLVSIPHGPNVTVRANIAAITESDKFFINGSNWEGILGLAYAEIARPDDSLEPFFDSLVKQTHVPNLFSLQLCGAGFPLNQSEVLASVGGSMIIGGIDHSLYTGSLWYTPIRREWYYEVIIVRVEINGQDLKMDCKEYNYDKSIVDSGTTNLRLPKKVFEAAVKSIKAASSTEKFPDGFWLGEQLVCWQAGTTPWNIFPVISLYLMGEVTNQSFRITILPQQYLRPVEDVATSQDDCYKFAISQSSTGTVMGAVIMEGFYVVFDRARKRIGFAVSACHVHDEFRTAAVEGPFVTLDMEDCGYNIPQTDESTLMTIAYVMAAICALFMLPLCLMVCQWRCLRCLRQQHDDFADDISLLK
IC50 (BACE1) [nM],Structure (SMILES),"Aβ40 (wt mice, brain) ([1]; 30 mg/kg) [%]","Aβ40 (wt mice, brain) [1] [%]"
0.2,"Cc1cc(C#N)cnc1C(=O)Nc1ccc(F)c(C2(C)CS3(=O)=NCCCCC3(C)C(N)=N2)n1 (single isomer, unassigned) [Example 2, N-[6-(6-amino-5a,8-dimethyl-10-oxido-3,4,5,5a,8,9-hexahydro-2H-10λ^4-[1,4]thiazino[2,1-g][1,2]thiazepin-8-yl)-5-fluoropyridin-2-yl]-5-cyano-3-methylpyridine-2-carboxamide]",48,
98,"Cc1cc(C#N)cnc1C(=O)Nc1ccc(F)c(C2(CF)CS3(=O)=NCCCC3(C)C(N)=N2)n1 (single isomer, unassigned) [Example 9]",113,
320,"CC1(c2nc(NC(=O)c3ccc(OCC(F)(F)C(F)F)cn3)ccc2F)CS2(=O)=NCCCC2(C)C(N)=N1 (single isomer, unassigned) [Example 12]",,77
0.8,"Cc1cc(C#N)cnc1C(=O)Nc1ccc(F)c(C2(CF)CS3(=O)=NCCCC3(C)C(N)=N2)n1 (single isomer, unassigned) [Example 5]",88,
0.4,"Cc1cc(C#N)cnc1C(=O)Nc1ccc(F)c(C2(C)CS3(=O)=NCCCCC3(C)C(N)=N2)n1 (single isomer, unassigned) [Example 4, N-[6-(6-amino-5a,8-dimethyl-10-oxido-3,4,5,5a,8,9-hexahydro-2H-10λ^4-[1,4]thiazino[2,1-g][1,2]thiazepin-8-yl)-5-fluoropyridin-2-yl]-5-cyano-3-methylpyridine-2-carboxamide]",83,
> 200,"Cc1cc(C#N)cnc1C(=O)Nc1ccc(F)c(C2(CF)CS3(=O)=NCCCC3(C)C(N)=N2)n1 (single isomer, unassigned) [Example 8]",,
2.3,"CC1(c2nc(NC(=O)c3ncc(C#N)cc3Cl)ccc2F)CS2(=O)=NCCCC2(C)C(N)=N1 (single isomer, unassigned) [Example 11]",,90
0.2,"Cc1cc(C#N)cnc1C(=O)Nc1ccc(F)c(C2(C)CS3(=O)=NCCCC3(C)C(N)=N2)n1 (single isomer, unassigned) [Example 1, N-[6-(5-amino-4a,7-dimethyl-9-oxido-2,3,4,4a,7,8-hexahydro-9λ^4-[1,4]thiazino[2,1-f][1,2]thiazin-7-yl)-5-fluoropyridin-2-yl]-5-cyano-3-methylpyridine-2-carboxamide]",62,
218,"Cc1cc(C#N)cnc1C(=O)Nc1ccc(F)c(C2(CF)CS3(=O)=NCCCC3(C)C(N)=N2)n1 (single isomer, unassigned) [Example 6]",,
2.9,"Cc1cc(C#N)cnc1C(=O)Nc1ccc(F)c(C2(C)CS3(=O)=NCCCC3(C)C(N)=N2)n1 (single isomer, unassigned) [Example 10]",89,
13.8,"Cc1cc(C#N)cnc1C(=O)Nc1ccc(F)c(C2(C)CS3(=O)=NCCCCC3(C)C(N)=N2)n1 (single isomer, unassigned) [Example 3, N-[6-(6-amino-5a,8-dimethyl-10-oxido-3,4,5,5a,8,9-hexahydro-2H-10λ^4-[1,4]thiazino[2,1-g][1,2]thiazepin-8-yl)-5-fluoropyridin-2-yl]-5-cyano-3-methylpyridine-2-carboxamide]",95,
46,"CC12CCCN=S1(=O)CC(CF)(c1nc(NC(=O)c3ccc(OCC(F)(F)C(F)F)cn3)ccc1F)N=C2N (single isomer, unassigned) [Example 7]",,

# Reference: patent publication US9920072B2, “BACE1 inhibitors” (Hoffmann-La Roche Inc., priority 2014, dated 2018)
